In ChEMBL document CHEMBL3217682, “Discovery of highly potent antifungal triazoles by structure-based lead fusion” (2011):
Values after ≈ are worked out from the molar mass of the structure shown.

What was measured:
Format in all cases: functional
[1] = test system: Candida parapsilosis; assay: Ratio of fluconazole MIC80 to compound MIC80 for Candida parapsilosis
[2] = test system: Candida parapsilosis; assay: Antifungal activity against Candida parapsilosis assessed as turbidity after 24 hrs by serial dilution method; settings: Lodderomyces parapsilosis
[3] = test system: Candida tropicalis; assay: Antifungal activity against Candida tropicalis assessed as turbidity after 24 hrs by serial dilution method
[4] = test system: Candida tropicalis; assay: Ratio of fluconazole MIC80 to compound MIC80 for Candida tropicalis
[5] = test system: Trichophyton rubrum; assay: Antifungal activity against Trichophyton rubrum assessed as turbidity after 24 to 72 hrs by serial dilution method
[6] = test system: Kluyveromyces marxianus; assay: Antifungal activity against Candida kefyr assessed as turbidity after 24 hrs by serial dilution method
[7] = test system: Aspergillus fumigatus; assay: Antifungal activity against Aspergillus fumigatus assessed as turbidity after 7 days by serial dilution method; settings: 168 h
[8] = test system: Kluyveromyces marxianus; assay: Ratio of fluconazole MIC80 to compound MIC80 for Candida kefyr
[9] = test system: Candida albicans; assay: Antifungal activity against Candida albicans assessed as turbidity after 24 hrs by serial dilution method
[10] = test system: Cryptococcus neoformans; assay: Antifungal activity against Cryptococcus neoformans assessed as turbidity after 72 hrs by serial dilution method

Row | SMILES | Ratio [1] | MIC80 [2] | MIC80 [3] | Ratio [4] | MIC80 [5] | MIC80 [6] | MIC80 [7] | Ratio [8] | MIC80 [9] | MIC80 [10]
1 | OC(CN1CCC(OCc2ccccc2F)CC1)(Cn1cncn1)c1ccc(F)cc1F (stereo not drawn) | 82 | 0.03 µM (≈ 0.0134 µg/mL) | 0.03 µM (≈ 0.0134 µg/mL) | 82 | 0.14 µM (≈ 0.0625 µg/mL) | 0.56 µM (≈ 0.25 µg/mL) | 2.24 µM (≈ 1 µg/mL) | 82 | 0.01 µM (≈ 0.00446 µg/mL) | 0.03 µM (≈ 0.0134 µg/mL)
2 | OC(CN1CCC(OCc2ccccc2Cl)CC1)(Cn1cncn1)c1ccc(F)cc1F (stereo not drawn) |  | 0.03 µM (≈ 0.0139 µg/mL) | 0.14 µM (≈ 0.0648 µg/mL) |  | 0.14 µM (≈ 0.0648 µg/mL) | 0.54 µM (≈ 0.25 µg/mL) | 2.16 µM (≈ 1 µg/mL) |  | 0.03 µM (≈ 0.0139 µg/mL) | 0.03 µM (≈ 0.0139 µg/mL)
3 | OC(CN1CCC(OCc2ccccc2)CC1)(Cn1cncn1)c1ccc(F)cc1F (stereo not drawn) | 82 | 0.04 µM (≈ 0.0171 µg/mL) | 0.04 µM (≈ 0.0171 µg/mL) | 82 | 0.15 µM (≈ 0.0643 µg/mL) | 0.15 µM (≈ 0.0643 µg/mL) | 2.33 µM (≈ 0.998 µg/mL) | 82 | 0.01 µM (≈ 0.00428 µg/mL) | 0.04 µM (≈ 0.0171 µg/mL)
4 | OC(Cn1cncn1)(Cn1cncn1)c1ccc(F)cc1F [FLUCONAZOLE] |  | 0.82 µM (≈ 0.251 µg/mL) | 3.26 µM (≈ 0.998 µg/mL) |  | 3.26 µM (≈ 0.998 µg/mL) | 3.26 µM (≈ 0.998 µg/mL) | > 209 µM |  | 0.82 µM (≈ 0.251 µg/mL) | 0.2 µM (≈ 0.0613 µg/mL)
5 | OC(CN1CCC(OCc2cccc(Cl)c2)CC1)(Cn1cncn1)c1ccc(F)cc1F (stereo not drawn) |  | 0.03 µM (≈ 0.0139 µg/mL) | 0.14 µM (≈ 0.0648 µg/mL) |  | 0.03 µM (≈ 0.0139 µg/mL) | 0.54 µM (≈ 0.25 µg/mL) | 2.16 µM (≈ 1 µg/mL) |  | 0.14 µM (≈ 0.0648 µg/mL) | 0.03 µM (≈ 0.0139 µg/mL)
6 | CN(CCCCOc1ccccc1)CC(O)(Cn1cncn1)c1ccc(F)cc1F (stereo not drawn) |  | 0.15 µM (≈ 0.0625 µg/mL) | 0.04 µM (≈ 0.0167 µg/mL) |  | 0.6 µM (≈ 0.25 µg/mL) | 0.6 µM (≈ 0.25 µg/mL) | > 154 µM |  | 0.04 µM (≈ 0.0167 µg/mL) | 0.15 µM (≈ 0.0625 µg/mL)
7 | OC(CN1CCC(OCc2ccc(Cl)c(Cl)c2)CC1)(Cn1cncn1)c1ccc(F)cc1F (stereo not drawn) |  | 0.03 µM (≈ 0.0149 µg/mL) | 0.13 µM (≈ 0.0647 µg/mL) |  | 0.03 µM (≈ 0.0149 µg/mL) | 0.5 µM (≈ 0.249 µg/mL) | 2.01 µM (≈ 1 µg/mL) |  | 0.13 µM (≈ 0.0647 µg/mL) | 0.03 µM (≈ 0.0149 µg/mL)
8 | OC(CN1CCC(OCc2ccc(F)cc2)CC1)(Cn1cncn1)c1ccc(F)cc1F (stereo not drawn) |  | 0.03 µM (≈ 0.0134 µg/mL) | 0.03 µM (≈ 0.0134 µg/mL) |  | 0.03 µM (≈ 0.0134 µg/mL) | 0.56 µM (≈ 0.25 µg/mL) | 2.24 µM (≈ 1 µg/mL) |  | 0.14 µM (≈ 0.0625 µg/mL) | 0.03 µM (≈ 0.0134 µg/mL)
9 | N#Cc1ccc(COC2CCN(CC(O)(Cn3cncn3)c3ccc(F)cc3F)CC2)cc1 (stereo not drawn) |  | 0.01 µM (≈ 0.00453 µg/mL) | 0.14 µM (≈ 0.0635 µg/mL) |  | 0.03 µM (≈ 0.0136 µg/mL) | 0.55 µM (≈ 0.249 µg/mL) | 0.55 µM (≈ 0.249 µg/mL) |  | 0.03 µM (≈ 0.0136 µg/mL) | 0.03 µM (≈ 0.0136 µg/mL)
10 | OC(CN1CCC(OCc2ccc(Cl)cc2Cl)CC1)(Cn1cncn1)c1ccc(F)cc1F (stereo not drawn) |  | 0.03 µM (≈ 0.0149 µg/mL) | 0.13 µM (≈ 0.0647 µg/mL) |  | 0.13 µM (≈ 0.0647 µg/mL) | 0.5 µM (≈ 0.249 µg/mL) | 2.01 µM (≈ 1 µg/mL) |  | 0.13 µM (≈ 0.0647 µg/mL) | 0.03 µM (≈ 0.0149 µg/mL)
11 | OC(CN1CCC(OCc2cccc(Br)c2)CC1)(Cn1cncn1)c1ccc(F)cc1F (stereo not drawn) | 82 | 0.12 µM (≈ 0.0609 µg/mL) | 0.12 µM (≈ 0.0609 µg/mL) | 82 | 0.12 µM (≈ 0.0609 µg/mL) | 0.49 µM (≈ 0.249 µg/mL) | 1.97 µM (≈ 1 µg/mL) | 82 | 0.01 µM (≈ 0.00507 µg/mL) | 0.12 µM (≈ 0.0609 µg/mL)
12 | CN(CC(O)(Cn1cncn1)c1ccc(F)cc1F)C1CCN(Cc2ccccc2)CC1 (stereo not drawn) |  | 0.57 µM (≈ 0.252 µg/mL) | 2.26 µM (≈ 0.998 µg/mL) |  | 2.26 µM (≈ 0.998 µg/mL) | 2.26 µM (≈ 0.998 µg/mL) | 145 µM (≈ 64 µg/mL) |  | 0.57 µM (≈ 0.252 µg/mL) | 2.26 µM (≈ 0.998 µg/mL)
